Paper PMC9246773, “Assessing the Activity of Antimicrobial Peptides Against Common Marine Bacteria Located in Rotifer (Brachionus plicatilis) Cultures” (Probiotics and Antimicrobial Proteins, 2022)
Like-named read-outs stand apart in the source and are kept apart here. No end group written: not given here.

Assays:
Format in all cases: cell-based
[1] = system: Vibrio alginolyticus
Description: (§1) A range of bacterial species with the potential to be transferred to developing fish larvae as pathogens or probiotics were selected for use in the study (Table 2). Bacterial isolates were stored at −80 °C and thawed, and 25 µL of the isolates was spread onto marine salt agar (MSA) media. All isolates were incubated at 25 °C for 18 h to reach mid-log growth phase. All isolates were sub-cultured and identified using mass spectrometry (MALDI-TOF) using the BioTyper and MBT 8468 library (Bruker Pty Ltd). The isolate Tenacibaculum discolor was plated on Anacker and Oradal’s marine (AOM) media, incubated for 48 h and identified using the aforementioned method. Bacterial isolates were suspended in sterile saline (0.75% NaCl w/v) to 0.5 McFarland standard. […] The bacterial isolates T. discolor and Pseudoalteromonas sp. require marine salts to grow and were not added to MHB (0‰). The isolate T. discolor requires low nutrients to grow, therefore, a separate MHB (25‰) was prepared at a diluted ratio of 1 part MHB and 7 parts artificial seawater (25‰).
(§2) The protocol was followed to determine the minimum inhibitory concentration (MIC) of the selected peptides. Two MIC assays were performed, firstly to determine whether each peptide precipitated in MHB and thereby required acetic acid adjustments (supplementary materials) and secondly, to determine the antimicrobial activity of each peptide in artificial seawater (25‰). Peptide stock solutions (1.3 mg mL^−1) were made by diluting the peptides in sterile deionised water. MHB was made with deionised water to reach a concentration of approaching 0‰ and artificial sea salts (Sigma-Aldrich® S9883) to reach a salinity of 25‰.
(§3) Once the acetic acid requirement for each peptide was determined (Table 3), the antimicrobial activity of each peptide was tested at a salinity of 0‰ and 25‰ for all bacterial isolates. A stock solution for peptides that required acetic acid was prepared by a 1:2 dilution in acetic acid (0.02% acetic acid w/v, containing 0.4% BSA) solution. In a 96-well polypropylene microtitre plates (Costar® 3879), 100 µL of this peptide stock was added to the first well for each bacterial isolate tested and serially diluted twofold with acetic acid (0.01% acetic acid w/v, containing 0.2% BSA). From each well, 10 µL of each peptide concentration was added to the corresponding wells of a new 96-well microtitre plate. From each of the bacterial suspensions (0‰), 90 µL was added to each well. […] Twofold serial dilutions were made with MHB (0‰). From each of the bacterial suspensions (0‰), 50 µL was added to each well. The same method was followed for testing peptides in MHB at 25‰. All peptide concentrations ranged from 0.125 to 65 µg mL^−1, and the bacterial suspension in each well was approximately 5 × 10^5 CFU mL^−1. The different salinities were used to compare any differences in antimicrobial activity in 0‰ and 25‰ water. […] Each bacterium was trialled in duplicate.

[2] = system: Vibrio harveyi
Description: as §1, §2, §3

[3] = system: Escherichia coli (ATCC 25922)
Description: as §1, §2, §3

[4] = system: Vibrio scophthalmi
Description: as §1, §2, §3

[5] = system: Tenacibaculum discolor
Description: as §1, §2, §3

[6] = system: Vibrio rotiferianus
Description: as §1, §2, §3

[7] = system: Pseudoalteromonas sp.
Description: as §1, §2, §3

[8] = system: Shewanella sp.
Description: as §1, §2, §3

[9] = system: Vibrio harveyi (ATCC 35084)
Description: as §1, §2, §3

[10] = system: Vibrio alginolyticus; remark: listed apart in the source
Description: as §1, §2
(§4) A broth microdilution protocol was followed to test whether the AMPs precipitated in MHB. The isolates T. discolor and Pseudoalteromonas were excluded from this assay because they required marine salts for growth. The peptides HHC10 and HHC36 previously required acetic acid adjustments according to [63] and were not trialled in this assay. To test if peptides required acetic acid, each peptide was diluted 1:2 in acetic acid (0.02% acetic acid w/v, containing 0.4% BSA) solution. In a 96-well polypropylene microtitre plates (Costar® 3879), 100 µL of this peptide stock was added to the first well for each bacterial isolate tested and serially diluted 2-fold with acetic acid (0.01% acetic acid w/v, containing 0.2% BSA). From each well, 10 µL of each peptide concentration was added to the corresponding wells of a new 96-well microtitre plate. From each of the bacterial suspensions in MHB (0‰), 90 µL was added to each well. […] From each of the bacterial suspensions in MHB (0‰), 50 µL was added to each well. All peptide concentrations ranged from 0.125 - 65µg mL^-1 and the bacterial suspension in each well was approximately 5 × 10^5 CFU mL^-1. Antimicrobial peptides that have an MIC value two or more dilutions higher in the assay with no acetic acid, compared to the assay with acetic acid, require acetic acid adjustments. The 96-well plates were incubated at 25 °C and read at 24 and 48 hours. The MIC was visually determined using a Sensititre™ Vizion™ Digital MIC Viewing System (Thermo Scientific™), and the lowest AMP concentration that had no bacterial growth was recorded as the MIC after 48 hours. Each bacterium was trialled in duplicate.

[11] = system: Vibrio harveyi; remark: listed apart in the source
Description: as §1, §2, §4

[12] = system: Escherichia coli (ATCC 25922); remark: listed apart in the source
Description: as §1, §2, §4

[13] = system: Vibrio scophthalmi; remark: listed apart in the source
Description: as §1, §2, §4

[14] = system: Vibrio rotiferianus; remark: listed apart in the source
Description: as §1, §2, §4

[15] = system: Shewanella sp.; remark: listed apart in the source
Description: as §1, §2, §4

[16] = system: Vibrio harveyi (ATCC 35084); remark: listed apart in the source
Description: as §1, §2, §4

[17] = MHB 0‰, acetic acid only for peptides requiring it, 25 °C, MIC after 48 h, ca. 5 × 10^5 CFU mL^-1, duplicate
[18] = MHB with artificial sea salts 25‰, acetic acid only for peptides requiring it, 25 °C, MIC after 48 h, ca. 5 × 10^5 CFU mL^-1, duplicate
[19] = no acetic acid (peptide diluted 1:10 in MHB), MHB 0‰, 25 °C, MIC after 48 h, ca. 5 × 10^5 CFU mL^-1, duplicate
[20] = with acetic acid (0.01% acetic acid w/v, 0.2% BSA diluent), MHB 0‰, 25 °C, MIC after 48 h, ca. 5 × 10^5 CFU mL^-1, duplicate

VLQIKKVLRLLL-NH2 [Peptide 3011]
1.02 µg/mL: MIC V. scophthalmi, salinity 0‰ [4, 17]
32.5 µg/mL: MIC V. harveyi, No acetic [11, 19]
16.25 µg/mL: MIC E. coli ATCC 25922, salinity 0‰ [3, 17] | MIC V. harveyi, Acetic [11, 20] | MIC E. coli ATCC 25922, Acetic [12, 20] | MIC Shewanella sp., No acetic [15, 19] | MIC Shewanella sp., Acetic [15, 20] | MIC V. harveyi ATCC 35084, Acetic [16, 20]
> 65 µg/mL: MIC V. alginolyticus, salinity 25‰ [1, 18] | MIC V. harveyi, salinity 25‰ [2, 18] | MIC E. coli ATCC 25922, salinity 25‰ [3, 18] | MIC V. scophthalmi, salinity 25‰ [4, 18] | MIC T. discolor, salinity 25‰ ([5]; MHB (25‰) diluted 1 part MHB and 7 parts artificial seawater (25‰), 25 °C, MIC after 48 h, ca. 5 × 10^5 CFU mL^-1, duplicate) | MIC V. rotiferianus, salinity 25‰ [6, 18] | MIC Pseudoalteromonas sp., salinity 25‰ ([7]; MHB with artificial sea salts 25‰, 25 °C, MIC after 48 h, ca. 5 × 10^5 CFU mL^-1, duplicate) | MIC Shewanella sp., salinity 25‰ [8, 18] | MIC V. harveyi ATCC 35084, salinity 25‰ [9, 18]
2.03 µg/mL: MIC V. scophthalmi, No acetic [13, 19]
8.13 µg/mL: MIC V. harveyi, salinity 0‰ [2, 17] | MIC Shewanella sp., salinity 0‰ [8, 17] | MIC V. harveyi ATCC 35084, salinity 0‰ [9, 17] | MIC E. coli ATCC 25922, No acetic [12, 19] | MIC V. harveyi ATCC 35084, No acetic [16, 19]
4.06 µg/mL: MIC V. alginolyticus, salinity 0‰ [1, 17] | MIC V. rotiferianus, salinity 0‰ [6, 17] | MIC V. alginolyticus, No acetic [10, 19] | MIC V. alginolyticus, Acetic [10, 20] | MIC V. scophthalmi, Acetic [13, 20] | MIC V. rotiferianus, No acetic [14, 19] | MIC V. rotiferianus, Acetic [14, 20]

WVGVIIKWGLKL-NH2 [Peptide 3018]
16.25 µg/mL: MIC V. harveyi, salinity 0‰ ([2]; 48 h) | MIC Shewanella sp., salinity 0‰ ([8]; 48 h) | MIC V. harveyi, Acetic ([11]; 48 h) | MIC V. harveyi, No acetic ([11]; 48 h) | MIC E. coli ATCC 25922, No acetic ([12]; ATCC 25922, 48 h) | MIC Shewanella sp., Acetic ([15]; 48 h) | MIC V. harveyi ATCC 35084, Acetic ([16]; ATCC 35084, 48 h)
32.5 µg/mL: MIC V. harveyi ATCC 35084, salinity 0‰ ([9]; ATCC 35084, 48 h)
> 65 µg/mL: MIC V. alginolyticus, salinity 25‰ ([1]; 48 h) | MIC V. harveyi, salinity 25‰ ([2]; 48 h) | MIC E. coli ATCC 25922, salinity 25‰ ([3]; ATCC 25922, 48 h) | MIC V. scophthalmi, salinity 25‰ ([4]; 48 h) | MIC T. discolor, salinity 25‰ ([5]; 48 h) | MIC V. rotiferianus, salinity 25‰ ([6]; 48 h) | MIC Pseudoalteromonas sp., salinity 25‰ ([7]; 48 h) | MIC Shewanella sp., salinity 25‰ ([8]; 48 h) | MIC V. harveyi ATCC 35084, salinity 25‰ ([9]; ATCC 35084, 48 h) | MIC E. coli ATCC 25922, Acetic ([12]; ATCC 25922, 48 h)
4.06 µg/mL: MIC V. alginolyticus, No acetic ([10]; 48 h) | MIC V. rotiferianus, No acetic ([14]; 48 h)
8.13 µg/mL: MIC V. rotiferianus, salinity 0‰ ([6]; 48 h) | MIC V. alginolyticus, Acetic ([10]; 48 h) | MIC V. rotiferianus, Acetic ([14]; 48 h) | MIC Shewanella sp., No acetic ([15]; 48 h) | MIC V. harveyi ATCC 35084, No acetic ([16]; ATCC 35084, 48 h)
0.25 µg/mL: MIC V. scophthalmi, Acetic ([13]; 48 h)
65 µg/mL: MIC E. coli ATCC 25922, salinity 0‰ ([3]; ATCC 25922, 48 h)
1.02 µg/mL: MIC V. scophthalmi, salinity 0‰ ([4]; 48 h)
2.03 µg/mL: MIC V. alginolyticus, salinity 0‰ ([1]; 48 h) | MIC V. scophthalmi, No acetic ([13]; 48 h)

KRWWKWWRR-NH2 [HHC36]
32.5 µg/mL: MIC V. harveyi, salinity 0‰ ([2]; 48 h) | MIC V. harveyi ATCC 35084, salinity 0‰ ([9]; ATCC 35084, 48 h)
2.03 µg/mL: MIC E. coli ATCC 25922, salinity 0‰ ([3]; ATCC 25922, 48 h) | MIC V. scophthalmi, salinity 0‰ ([4]; 48 h)
> 65 µg/mL: MIC V. alginolyticus, salinity 0‰ ([1]; 48 h) | MIC V. alginolyticus, salinity 25‰ ([1]; 48 h) | MIC V. harveyi, salinity 25‰ ([2]; 48 h) | MIC E. coli ATCC 25922, salinity 25‰ ([3]; ATCC 25922, 48 h) | MIC V. scophthalmi, salinity 25‰ ([4]; 48 h) | MIC T. discolor, salinity 25‰ ([5]; 48 h) | MIC V. rotiferianus, salinity 0‰ ([6]; 48 h) | MIC V. rotiferianus, salinity 25‰ ([6]; 48 h) | MIC Pseudoalteromonas sp., salinity 25‰ ([7]; 48 h) | MIC Shewanella sp., salinity 25‰ ([8]; 48 h) | MIC V. harveyi ATCC 35084, salinity 25‰ ([9]; ATCC 35084, 48 h)

RRQWRGWVRIWL-NH2 [Peptide 3005]
1.02 µg/mL: MIC V. rotiferianus, salinity 0‰ ([6]; 48 h) | MIC V. harveyi, No acetic ([11]; 48 h) | MIC V. scophthalmi, Acetic ([13]; 48 h) | MIC V. rotiferianus, No acetic ([14]; 48 h)
2.03 µg/mL: MIC V. alginolyticus, salinity 0‰ ([1]; 48 h)
8.13 µg/mL: MIC Shewanella sp., salinity 0‰ ([8]; 48 h) | MIC Shewanella sp., No acetic ([15]; 48 h)
> 65 µg/mL: MIC V. alginolyticus, salinity 25‰ ([1]; 48 h) | MIC V. harveyi, salinity 25‰ ([2]; 48 h) | MIC E. coli ATCC 25922, salinity 25‰ ([3]; ATCC 25922, 48 h) | MIC T. discolor, salinity 25‰ ([5]; 48 h) | MIC V. rotiferianus, salinity 25‰ ([6]; 48 h) | MIC Pseudoalteromonas sp., salinity 25‰ ([7]; 48 h) | MIC V. harveyi ATCC 35084, salinity 25‰ ([9]; ATCC 35084, 48 h) | MIC E. coli ATCC 25922, Acetic ([12]; ATCC 25922, 48 h) | MIC E. coli ATCC 25922, No acetic ([12]; ATCC 25922, 48 h)
4.06 µg/mL: MIC V. harveyi, salinity 0‰ ([2]; 48 h) | MIC E. coli ATCC 25922, salinity 0‰ ([3]; ATCC 25922, 48 h) | MIC V. harveyi ATCC 35084, salinity 0‰ ([9]; ATCC 35084, 48 h) | MIC V. alginolyticus, Acetic ([10]; 48 h) | MIC V. harveyi, Acetic ([11]; 48 h) | MIC V. rotiferianus, Acetic ([14]; 48 h) | MIC Shewanella sp., Acetic ([15]; 48 h)
0.13 µg/mL: MIC V. scophthalmi, salinity 0‰ ([4]; 48 h)
16.25 µg/mL: MIC V. alginolyticus, No acetic ([10]; 48 h) | MIC V. harveyi ATCC 35084, Acetic ([16]; ATCC 35084, 48 h) | MIC V. harveyi ATCC 35084, No acetic ([16]; ATCC 35084, 48 h)
0.25 µg/mL: MIC V. scophthalmi, No acetic ([13]; 48 h)
65 µg/mL: MIC V. scophthalmi, salinity 25‰ ([4]; 48 h) | MIC Shewanella sp., salinity 25‰ ([8]; 48 h)
